Laboratory results: patent publication USRE37770E1, “Treatment of skin conditions by use of PPARα activators” (The Regents of the University of California, priority 1997, dated 2002)

Assays:
[1] = test system: transglutaminase protein; experiment: Transglutaminase protein level in keratinocytes by Western blotting; format: cell-based, Human; details: low calcium (0.03 mM), 24 hours
Experimental: Protein concentration was assessed by protein electrophoresis and Western blotting. Cells were lysed is 2% SDS and the lysate sonicated. Protein determinations were made by use of a Bicinchoninic add protein assay (Pierce Chemical Company, Rockford, Ill. USA). Following protein determination, equal amounts at protein (50 μg) were separated by electrophoresis an 7.5% polyacrylamide gels and electroblotted onto polyvinylidene […] membranes (0.2-μ, obtained from Bio-Rad Laboratories Hercules, Calif., USA). Involucrin protein was detected by incubation over-night at 4° C. C. with a polyclonal rabbit anti-human involucrin antibody (1:1000 dilution). The involucrin-specific bands on the autoradiograms were quantitated by densitometry by densitometry. Transglutaminase protein expression was measured in a similar […], using stacking, sample and running buffers containing 4 M urea, and the gels following electrophoresis were washed in 4 M urea, 25 mM TRIS-HCl, pH 7.4, 7.5 mM NaCl, 0.1 mM dithiothreitol (DTT), and 2 mM ethylenediamine tetraacetic acid for 90 minutes prior to electoblotting, allowing the transglutaminase to be detected by antibody. Specific bands on the autoradiograms were quantified by densitometry. Levels of involucrin and transglutaminase protein were measured in keratinocytes incubated in low calcium (0.03 mM) and treated with the test compounds for 24 hours. The are shown in the bar graph of FIG. 17a, where the test compounds are compared with the vehicle alone (control) and cholesterol, using the same bar indications as in FIGS 14 through 16. […] Cholesterol had no effect.

[2] = test system: keratinocytes; experiment: Rate of DNA synthesis (3H-thymidine incorporation) in keratinocytes; format: cell-based, Human; details: 10 μM, 24 hours, low calcium (0.03 mM); 16-hour 3H-thymidine period
Experimental: The rate of DNA synthesis was determined by measuring the incorporation of ^3H-thymidine into cellular DNA after 16 hours of incubation with 2 μCi^3H-thymidine per mL of media (110 Ci/mmol methyl-1′,2′-^3H-thymidine (Amersham Laboratories, Arlington Heights, Ill. USA). The cells were then solubilized in 1N NaOH, and the radioactivity in the washed TCA precipitate was quantitated by scintillation spectroscopy.
Using the procedures set forth in the Materials and Methods section above, 25-hydroxycholesterol (10 μM) and 22(R)-hydroxycholesterol (10 μM, were compared with cholesterol (10 μM) and the vehicle alone control), with treatment for 24 hours under low calcium (0.03 mM) condition. The results are shown in the bar graph of FIG. 19.

[3] = test system: Skin explants from gestational day 17 rats; experiment: Light and electron microscopy of fetal rat skin explants (epidermal maturation); format: cell-based; details: 300 μM, 48 hours
Experimental: Samples for light microscopy were fixed in modified Karnovsky's solution, plastic-embedded, and 0.5 μm sections were stained with toluidine. Samples for electron microscopy were minced into 1 mm^3 pieces, fixed in modified Karnovsky's fixative, and processed. Sections were stained with uranyl acetate and lead citrate, post-fixed in ruthenium tetroxide, and examined using a Zeiss 10A electron microscope.
Explants incubated in various media woe examined by light microscopy. The incubation di included control medium (containing no activators) and various media individually containing 300 μM clofibrate, 100 μM juvenile hormone III, 300 μM oleic acid, 30 μM linoleic acid, 50 μM farnesol, and various concentrations of 9-cis-retinoic acid, all-trans-retinoic acid, and 1,25-dihydroxy vitamin D3.
Observations were then made of the ultrastructural maturation of the outer epidermis in explants that had been incubated in the various media and then post-fixed in ruthenium tetroxide. Media identical to those of the preceding paragraph were used, excluding the retinoic acid-containing and 1,25-dihydroxy vitamin D3-containing media.

[4] = test system: β-Glucocerebrosidase; experiment: β-Glucocerebrosidase activity in epidermis of treated fetal rat skin explants; format: cell-based, rats; details: clofibrate (300 μM), juvenile hormone III (100 μ), mean of five ± SEM
Experimental: (§1) Epidermis was separated from dermis after incubation in 10 mM ethylenediamine tetraacetic acid (EDTA) in Ca^++- and Mg^++-free phosphate-buffered saline (PBS), pH 7.4, at 37° C. for 30-40 minutes. The tissues were then minced, and homogenized on ice (three times at 15 seconds each with a Polytron homogenizer, followed by sonication twice at ten seconds each at 35% power) in either PBS containing 0.1 mM phenylmethylsulfonyl fluoride (PMSF) and 0.1% Triton X-100 (for β-glucocerebrosidase) or in 10 mM Tris (PH 7.5) containing 0.15 M sucrose and 2 mM EDTA (for steroid sulfatase). β-Glucocerebrosidase activity was measured in the supernatant following centrifugation at 10,000×g for fifteen minutes at 4° C. Steroid sulfatase activity was measured in the microsomal fraction resulting from a […] centrifugation (10 minutes, 4° C.) followed by 60 minutes of 100,000×g ultracentrifugation at 4° C. Protein content was measured by conventional techniques.
β-Glucocerebrosidase) activity was assayed using the synthetic substrate 4-methylumbelliferyl β-D-glucoside (4-MUG). The assays were performed in 5 mM sodium taurocholate in citrate-phosphate buffer (pH 5.6) with 0.5 mM 4-MUG for sixty minutes at 37° C., with a final assay volume of 100 μL, and protein concentration of 1-2 mg/mL. The reaction was terminated with 2 mL of carbonate-bicarbonate buffer (pH 10.5). The fluorescence was then measured at […] (excitation) and 450 λ (emission) and compared with a standard 4-methylumbelliferone (4-MU) curve.
(§2) Skin explants from 17-day fetal rats were incubated for 24 or 48 hours in media individually containing clofibrate (300 μM) and juvenile hormone III […], and control media. Enzyme activity was measured and the results are presented in Table I as the mean values of five determinations±SEM (standard error of the mean). All p values are ≦0.005 compared with controls of the same time period.

[5] = test system: Steroid Sulfatase; experiment: Steroid sulfatase activity in epidermis of treated fetal rat skin explants; format: cell-based, rats; details: clofibrate (300 μM), juvenile hormone III (100 μ), mean of five ± SEM
Experimental: as §1
Steroid sulfatase activity was measured by incubating 100 μg of microsomal protein in 0.1 M Tris containing 5.6 mM glucose (pH 7.4) with 15 μM, (^3H) dihydroepiandrosterone sulfate (DHEAS) (15 μCi) in a final volume of 1.1 mL The product, (^3H) DHEA, was extracted with benzene and an aliquot counted by scintillation spectrophotometry.
as §2

[6] = test system: Preconfluent keratinocytes; experiment: Keratinocyte growth: DNA content (bis-benzimidazole fluorimetry); format: cell-based, human; details: mean of three samples
Experimental: Preconfluent keratinocytes were treated for 48 hours with varying concentrations of clofibrate ranging from 0 (vehicle only) to 400 μM, in both low (0.03 mM) calcium and high (1.2 mM) calcium. The treated keratinocytes were harvested and sonicated, and the resulting homogenates were incubated with 1 μL/mL bis-benzimidazole for two hours in the dark. DNA content was quantified by reading the samples on a spectrofluorimeter. Each value in the table is a mean of three samples.

Row | Compound | TG'ase protein level relative to the control [1] | rate of DNA synthesis [2] | light microscopy of the epidermis [3] | β-Glucocerebrosidase Activity ([4]; 24-Hour Incubation) | β-Glucocerebrosidase Activity ([4]; 48-Hour Incubation) | Steroid Sulfatase Activity ([5]; 24-Hour Incubation) | Steroid Sulfatase Activity ([5]; 48-Hour Incubation) | DNA Content After 48 Hours ([6]; Clofibrate 50 μM) | DNA Content After 48 Hours ([6]; Clofibrate 200 μM) | DNA Content After 48 Hours ([6]; Clofibrate 400 μM)
1 | C[C@H](CCCC(C)(C)O)[C@H]1CC[C@H]2[C@@H]3CC=C4C[C@@H](O)CC[C@]4(C)[C@H]3CC[C@]12C [25-hydroxycholesterol] | approximately 1.6 fold | 50 % of control | – | – | – | – | – | – | – | –
2 | CCOC(=O)C(C)(C)Oc1ccc(Cl)cc1 [clofibrate, 2-(4-chlorophenoxy)-2-methylpropanoic acid ethyl ester] | – | – | had both a multi-layered stratum granulosum and a stratum corneum | 2.97 ± 0.30 nmol/min/mg | 5.35 ± 0.89 nmol/min/mg | 13.90 ± 1.10 pmol/h/mg | 22.51 ± 2.60 pmol/h/mg | 14.9 ± 1.5 μg/dish | 12.9 ± 1.1 μg/dish | 11.0 ± 1.3 μg/dish
